Read-outs that look alike come from different tables or passages of the source.
Tested on: primary human T-cells
Assay: T-cell proliferation assay (CellTiter-Glo)
Type: cell-based
Details: CD3 condition; for Emax: read-out: Emax proliferation (% activation); for EC50: proliferation after 5 days, CellTiter-Glo, read-out: Tcell Proliferation CD3 EC50
Experimental: Expanded primary human T-cells are thawed and cultured in RPMI 1640 (Gibco, #61870-010)+5% human serum (HS, Sigma, #H3667)+1 mM Sodium Pyruvate (Gibco, #11360-039)+50 μM 2-mercaptoethanol (Gibco, #31350-010) and 1× Pen-Strep (Life Technologies, #15140122) medium at density of 2 Mio/ml for 3 hours in 5% CO2, 37° C. and 95% humidity. For coating of plates, PBS++ only or PBS++ with CD3 antibody (concentration depending on donor and determined by CD3 titrations) is added 100 μl/well to Poly-D Lysine coated 96-well plates. Plates are sealed and incubated at room temperature for 3 hours on a table-top rocking platform. After incubation, plates are washed once with PBS−− and filled with 40 μl/well culture medium only. Compounds are then added (see next section) to medium only plates. After 3 hours of culturing the T-cells, cells are filtered through a cell strainer (Miltenyi Biotech, #130-041-407), counted again and concentration is adjusted to 1.25 Mio/ml.
Cells are then seeded 80 μl/well to the 40 µl/well including dispensed compounds according to plate layout. By adding cells, compounds are further diluted 1:3, and resulting in 100k cells/120 µl/well. After 48 hours 40 μl of supernatant is collected carefully from the top while not disturbing the cells. Cells are assessed for proliferation 5 days later by measuring […] using CellTiterGlo (Promega).
Compounds were added in a 5 or 6 pt dose response with the Tecan D300e Digital Dispenser, all conditions 3 times more concentrated than the end-concentration, since cells are added afterwards (80p1 cells to 40p1 prepared medium with treatment). The DR was starting at 20 μM or 10 μM final top concentration and a dilution factor of 3.333. The positive control was the reference compound A1 that was added in a dose response as well, additionally to 3 wells of only 20 μM representing the positive stimulator control. All wells were normalized with DMSO to a final concentration of 0.6% (0.2% end-concentration).
After 5 days, for detection of ATP which is directly proportional to the number of cells present per well, the CellTiter-Glo® 2.0 Reagent is used. After visual control for toxicity or precipitations of the tested compounds, the plates are equilibrated to room temperature for 45 minutes. CellTiter-Glo® 2.0 Reagent is equilibrated to room temperature as well. After equilibration, an equal amount of CellTiter-Glo reagent is added to the cells (80 µl/well) with an electronic multichannel pipette. Plates are placed on a rocking platform for 15 minutes at room temperature. After incubation, the bottom of the plates is sealed with backing tape. Luminescence is measured with PHERAstar FSX (interval time 0.5 sec, gain 3000, focal height 15 mm) and exported as CSV file for analysis in Genedata screener.
Calculations and Data Reporting CD3 and PBS plates were analysed separately in Genedata Screener using Roche Normalization PCT_POS_CTRL with DMSO set as Neutral Control and 20 μM of the reference compound A1 set as Stimulator Control/100%.
For CD3 conditions EC50 and Emax of the fitted sigmoidal curve were reported. If no curve could be fitted, the EC50 was reported as blank field and the Emax was based on individual data points. […] Compounds which activate unstimulated cells (see IL2 measurements) or compounds which negatively affected viability were flagged.

[1] = Homo sapiens, T-cell, 120 h, 5 days, 20 μM reference compound A1 = 100%

SMILES | Emax [1] [%] | EC50 (Homo sapiens, T-cell, 120 h) [nM] | Emax proliferation (% activation) (5 days, 20 μM reference compound A1 = 100%) [%] | EC50 [nM]
CC(C)(c1nnc(-c2cc3c(cc2F)S(=O)(=O)C[C@H](N)C(=O)N3Cc2ccc(OCC(F)(F)F)cc2)o1)S(C)(=O)=O [Example 24, (3R)-3-amino-8-fluoro-7-[5-(1-methyl-1-methylsulfonyl-ethyl)-1,3,4-oxadiazol-2-yl]-1,1-dioxo-5-[[4-(2,2,2-trifluoroethoxy)phenyl]methyl]-2,3-dihydro-1λ6,5-benzothiazepin-4-one] | 104 | 475 | – | –
CC(C)(c1nnc(-c2cc3c(cc2F)S(=O)(=O)C[C@H](N)C(=O)N3Cc2ccc(OC(F)(F)C(F)F)cc2)o1)S(C)(=O)=O [Example 26, (3R)-3-amino-8-fluoro-7-[5-(1-methyl-1-methylsulfonyl-ethyl)-1,3,4-oxadiazol-2-yl]-1,1-dioxo-5-[[4-(1,1,2,2-tetrafluoroethoxy)phenyl]methyl]-2,3-dihydro-1λ6,5-benzothiazepin-4-one] | 122 | 573 | – | –
CC(C)(c1nnc(-c2cc3c(cc2F)S(=O)(=O)C[C@H](N)C(=O)N3Cc2ccc(Oc3ccccc3)cc2)o1)S(C)(=O)=O [Example 27, (3R)-3-amino-8-fluoro-7-[5-(1-methyl-1-methylsulfonyl-ethyl)-1,3,4-oxadiazol-2-yl]-1,1-dioxo-5-[(4-phenoxyphenyl)methyl]-2,3-dihydro-1λ6,5-benzothiazepin-4-one] | 136 | 863 | – | –
COc1ccc(-c2ccc(CN3C(=O)[C@@H](N)CS(=O)(=O)c4cc(F)c(-c5nnc(C(C)(C)S(C)(=O)=O)o5)cc43)cc2)cc1 [Example 29, (3R)-3-amino-8-fluoro-5-[[4-(4-methoxyphenyl)phenyl]methyl]-7-[5-(1-methyl-1-methylsulfonyl-ethyl)-1,3,4-oxadiazol-2-yl]-1,1-dioxo-2,3-dihydro-1λ6,5-benzothiazepin-4-one] | 108 | 55 | – | –
Cc1cccc(Oc2ccc(CN3C(=O)[C@@H](N)CS(=O)(=O)c4ccc(-c5nnc(C(C)(C)S(C)(=O)=O)o5)cc43)cc2)c1 [Example 31] | 106 | 599 | – | –
CC(C)(c1nnc(-c2ccc3c(c2)N(Cc2ccc(Oc4cccc(Cl)c4Cl)cc2)C(=O)[C@@H](N)CS3(=O)=O)o1)S(C)(=O)=O [Example 32, (3R)-3-amino-5-[[4-(2,3-dichlorophenoxy)phenyl]methyl]-7-[5-(1-methyl-1-methylsulfonyl-ethyl)-1,3,4-oxadiazol-2-yl]-1,1-dioxo-2,3-dihydro-1λ6,5-benzothiazepin-4-one] | 75 | 356 | – | –
CC(C)(c1nnc(-c2cc3c(cc2F)S(=O)(=O)C[C@H](N)C(=O)N3Cc2ccc(-c3ccc(C(F)(F)F)cc3)cc2)o1)S(C)(=O)=O [Example 35, (3R)-3-amino-8-fluoro-7-[5-(1-methyl-1-methylsulfonyl-ethyl)-1,3,4-oxadiazol-2-yl]-1,1-dioxo-5-[[4-[4-(trifluoromethyl)phenyl]phenyl]methyl]-2,3-dihydro-1λ6,5-benzothiazepin-4-one] | 164 | < 15 | – | –
CC(C)(c1nnc(-c2cc3c(cc2F)S(=O)(=O)C[C@H](N)C(=O)N3Cc2ccc(-c3ccc(C(F)(F)F)nc3)cc2)o1)S(C)(=O)=O [Example 36] | 112 | 1680 | – | –
CC(C)(c1nnc(-c2ccc3c(c2)N(Cc2ccc(Oc4ccc(F)c(Cl)c4)cc2)C(=O)[C@@H](N)CS3(=O)=O)o1)S(C)(=O)=O [Example 37, (3R)-3-amino-5-[[4-(3-chloro-4-fluoro-phenoxy)phenyl]methyl]-7-[5-(1-methyl-1-methylsulfonyl-ethyl)-1,3,4-oxadiazol-2-yl]-1,1-dioxo-2,3-dihydro-1λ6,5-benzothiazepin-4-one] | 115 | 1290 | – | –
CC(C)(c1nnc(-c2ccc3c(c2)N(Cc2ccc(Oc4cc(F)cc(C(F)(F)F)c4)cc2)C(=O)[C@@H](N)CS3(=O)=O)o1)S(C)(=O)=O [Example 39] | 108 | 1330 | – | –
CC(C)(c1nnc(-c2ccc3c(c2)N(Cc2ccc(Oc4cccc(OC(F)(F)F)c4)cc2)C(=O)[C@@H](N)CS3(=O)=O)o1)S(C)(=O)=O [Example 40, (3R)-3-amino-7-[5-(1-methyl-1-methylsulfonyl-ethyl)-1,3,4-oxadiazol-2-yl]-1,1-dioxo-5-[[4-[3-(trifluoromethoxy)phenoxy]phenyl]methyl]-2,3-dihydro-126,5-benzothiazepin-4-one] | 148 | 903 | – | –
COc1cc(Cl)cc(Oc2ccc(CN3C(=O)[C@@H](N)CS(=O)(=O)c4ccc(-c5nnc(C(C)(C)S(C)(=O)=O)o5)cc43)cc2)c1 [Example 41, (3R)-3-amino-5-[[4-(3-chloro-5-methoxy-phenoxy)phenyl]methyl]-7-[5-(1-methyl-1-methylsulfonyl-ethyl)-1,3,4-oxadiazol-2-yl]-1,1-dioxo-2,3-dihydro-1λ6,5-benzothiazepin-4-one] | 97 | 1710 | – | –
COc1cccc(Oc2ccc(CN3C(=O)[C@@H](N)CS(=O)(=O)c4ccc(-c5nnc(C(C)(C)S(C)(=O)=O)o5)cc43)cc2)c1 [Example 42] | 205 | 674 | – | –
CC(C)(c1nc(-c2cc3c(cc2F)S(=O)(=O)C[C@H](N)C(=O)N3Cc2ccc(Cl)cc2)no1)S(C)(=O)=O [Example 43, (3R)-3-amino-5-[(4-chlorophenyl)methyl]-8-fluoro-7-[5-(1-methyl-1-methylsulfonyl-ethyl)-1,2,4-oxadiazol-3-yl]-1,1-dioxo-2,3-dihydro-1λ6,5-benzothiazepin-4-one] | 153 | 75 | – | –
CC(C)(c1nnc(-c2ccc3c(c2)N(Cc2ccc(Oc4cccc(OC(F)F)c4)cc2)C(=O)[C@@H](N)CS3(=O)=O)o1)S(C)(=O)=O [Example 47, (3R)-3-amino-5-[[4-[3-(difluoromethoxy)phenoxy]phenyl]methyl]-7-[5-(1-methyl-1-methylsulfonyl-ethyl)-1,3,4-oxadiazol-2-yl]-1,1-dioxo-2,3-dihydro-1λ6,5-benzothiazepin-4-one] | 156 | 351 | – | –
CC(C)(c1nc(-c2cc3c(cc2F)S(=O)(=O)C[C@H](N)C(=O)N3Cc2ccc(Oc3ccccc3)nc2)no1)S(C)(=O)=O [Example 48, (3R)-3-amino-8-fluoro-7-[5-(1-methyl-1l-methylsulfonyl-ethyl)-1,2,4-oxadiazol-3-yl]-1,1-dioxo-5-[(6-phenoxy-3-pyridyl)methyl]-2,3-dihydro-1 λ6,5-benzothiazepin-4-one] | 252 | 296 | – | –
COc1ccc(-c2ccc(CN3C(=O)[C@@H](N)CS(=O)(=O)c4ccc(-c5nnc(C(C)(C)S(C)(=O)=O)o5)cc43)cc2)c(C)c1 [Example 49, (3R)-3-amino-5-[[4-(4-methoxy-2-methyl-phenyl)phenyl]methyl]-7-[5-(1-methyl-1-methylsulfonyl-ethyl)-1,3,4-oxadiazol-2-yl]-1,1-dioxo-2,3-dihydro-1λ6,5-benzothiazepin-4-one] | 111 | 3130 | – | –
COc1ccc(-c2ccc(CN3C(=O)[C@@H](N)CS(=O)(=O)c4cc(F)c(-c5noc(C(C)(C)S(C)(=O)=O)n5)cc43)cc2)cc1 [Example 50, (3R)-3-amino-8-fluoro-5-[[4-(4-methoxyphenyl)phenyl]methyl]-7-[5-(1-methyl-1-methylsulfonyl-ethyl)-1,2,4-oxadiazol-3-yl]-1,1-dioxo-2,3-dihydro-1λ6,5-benzothiazepin-4-one] | 293 | 757 | – | –
CC(C)(c1nc(-c2cc3c(cc2F)[S+]([O-])C[C@H](N)C(=O)N3Cc2ccc(Oc3ccccc3)cc2)no1)S(C)(=O)=O (stereo partly drawn) [Example 51, (3R)-3-amino-8-fluoro-7-[5-(1-methyl-1-methylsulfonyl-ethyl)-1,2,4-oxadiazol-3-yl]-1-oxo-5-[(4-phenoxyphenyl)methyl]-2,3-dihydro-1λ4,5-benzothiazepin-4-one] | – | – | 67 | > 10000
